Reference: patent US20130338090A1, “Novel Compound Isolated from Allium tuberosum and Use Thereof as Antiviral Agent” (priority 2011, published 2013)

Test system: avian influenza virus (H5N1), A/Vietnam/1194/04(H5N1)-NIBRG-14 vaccine strain
Type: cell-based

`O=C(O)[C@H]1O[C@@H](Oc2cc(O)c3c(=O)cc(-c4ccc(O)cc4)oc3c2)[C@H](O)[C@@H](O)[C@@H]1O` [Compound II, apigenin 7-O-β-D-glucuronopyranoside] was tested. Which Activity did it give?
Its Activity is “X (key: ◯: antiviral activity defined as a decrease of 4 log units; X: antiviral activity defined as a decrease of 4 log units)”.

And the CPE inhibitory concentration?
Its CPE inhibitory concentration is over 10 µg/mL.

What about the log100TCID50/ml of the same compound?
The log100TCID50/ml was 0.

Which results are given for `C[C@@H]1O[C@@H](OC[C@H]2O[C@@H](Oc3c(-c4ccc(O)cc4)oc4cc(O)cc(O)c4c3=O)[C@H](O)[C@@H](O)[C@@H]2O)[C@H](O)[C@H](O)[C@H]1O` [Compound I, kaempferol 3-O-α-L-rhamnopyranosyl (1→6)-β-D-glucopyranoside]?
Activity: ◯ (key: ◯: antiviral activity defined as a decrease of 4 log units; X: antiviral activity defined as a decrease of 4 log units); log100TCID50/ml: 5; viral titer lower than that of the control group: 4 log
